What was measured:
[1] = target: T1, integrin αvβ3 (Homo sapiens, UniProt P05106+P06756); test: Competitive cell-binding assay with ^125I-c(RGDyK) on U87MG cells; details: FIG. 14A
T1 construct: Experiments were performed on U87MG human glioma cells expressing integrin αvβ3 as previously described; endogenous in cells; host or cells: U87MG human glioblastoma (glioma) cells

[2] = tested on: PC-3 tumor cells; test: Cell uptake assay on PC-3 tumor cells; format: cell-based, human; details: PC-3 cells, 37° C., within 30 min of incubation, plateau afterward
Description: In the cell uptake experiment, PC-3 cells were seeded into 12-well plates at a density of 5×10^5 cells per well for overnight incubation. Cells were rinsed 3 times with phosphate-buffered saline (PBS), followed by the addition of ^18F-FB-RGD, ^18F-FB-BBN, or ^18F-BBN-RGD to the cultured wells in triplicate (about 2 μCi/well). […] The cell lysate was collected in measurement tubes for counting. The cell uptake was normalized in terms of added radioactivity.
The cell uptake studies were performed as we have previously described with some modifications (Chen et al., Mol Imaging Biol. (2004) […]; Cai et al., (2006) J. Nuc. Med. 47: 1172-1180, incorporated herein by reference in their entireties). Briefly, PC-3 cells were seeded into 12-well plates at a density of 5×10^5 cells per well and incubated (about 18 kBq/well) with ^68Ga-labeled tracers at 37° C. for 15, 30, 60, and 120 min. Tumor cells were then washed three times with chilled PBS and harvested by trypsinization with 0.25% trypsin/0.02% EDTA (Invitrogen). The cell suspensions were collected and measured in a y counter (Packard, Meriden, Conn.). The cell uptake was expressed as the percent added dose (% AD) after decay correction. Experiments were performed twice with triplicate wells. For efflux studies, ^68Ga-labeled tracers (about 18 kBq/well) were first incubated with PC-3 cells in 12-well plates for 1 h at 37° C. to allow internalization. Then cells were washed twice with PBS, and incubated with cell culture medium for 15, 30, and 60 min. After washing three times with PBS, cells were harvested by trypsinization with 0.25% trypsin/0.02% EDTA. The cell suspensions were collected and measured in a γ counter. Experiments were performed twice with triplicate wells. Data are expressed as percent added dose after decay correction.

[3] = Small-animal PET of PC-3 tumor-bearing mice; details: male, athymic nude, mouse, in vivo, iv, 3.7 MBq, total radioactivity, PC-3 tumor uptake, PET ROI
Description: (a) PET scans and image analysis were performed using a micro-PET R4 rodent model scanner (Siemens Medical Solutions) as reported by Li et al., J. Nucl. Med. (2007) 48: 1162-1171 and Wu et al., J Nucl. Med. (2005) 46: 1707-1718, both of which are incorporated herein by reference in their entireties). […] Five-minute static PET images were then acquired at 0.5, 1, and 2 h after injection. The images were reconstructed by a 2-dimensional ordered-subsets expectation maximum (OSEM) algorithm. No attenuation or scatter correction was applied. […] The 5-min static PET scans were then acquired at 1 hr after injection. For each small-animal PET scan, regions of interest (ROIs) were drawn over the tumor, normal tissue, and major organs by using vendor software (ASI Pro 5.2.4.0) on decay-corrected whole-body coronal images. The average radioactivity concentration (accumulation) within a tumor or an organ was obtained from mean pixel values within the multiple ROI volume, which were converted to counts/mL/min using a conversion factor. Assuming a tissue density of 1 g/mL, the ROIs were converted to counts/g/min, and then divided by the administered activity to obtain an imaging ROI-derived percentage injected dose per gram of tissue (% ID/g).
For dynamic PET, 30-min scans (1×30 s, 4×1 min, 1×1.5 min, 4×2 min, 5×3 min; total 15 frames) were started 1 min after injection, and two 5-min static PET images were also acquired at 1 h and 2 h after injection. […] For each small-animal PET scan, regions of interest (ROIs) were drawn over the tumor, normal tissue, and major organs using vendor software ASI Pro 5.2.4.0 on decay-corrected whole-body coronal images. The maximum radioactivity concentrations (accumulation) within a tumor or an organ were obtained from mean pixel values within the multiple ROI volume, and were converted to megabecquerels per milliliter per minute using a conversion factor. These values were then divided by the administered activity to obtain (assuming a tissue density of 1 g/ml) an image ROI-derived percent injected dose per gram (% ID/g).
The images were reconstructed using a 2-dimensional ordered-subsets expectation maximum algorithm without attenuation or scatter correction.
For each small-animal PET scan, regions of interest were drawn over each tumor, over normal tissue, and over major organs using vendor software (ASI Pro, version 5.2.4.0) on decay-corrected whole-body coronal images. The maximum radioactivity concentration (accumulation) within a tumor or an organ was obtained from the mean pixel values within the multiple-region-of-interest volume, which were converted to MBq/mL/min using a conversion factor. Assuming a tissue density of 1 g/mL, the regions of interest were converted to MBq/g/min and then divided by the administered activity to obtain an imaging region-of-interest-derived percentage injected dose (% ID)/g.

[4] = tested on: DU-145 tumor; format: in vivo, mice; details: integrin αvβ3-positive, low GRPR-expressing tumor
Description: The PC-3 and DU-145 human prostate carcinoma cell lines were purchased from American Type Culture Collection. PC-3 cells were grown in F-12K nutrient mixture (Kaighn's modification) (Invitrogen Corp.), and DU-145 cells were grown in minimum essential medium (Eagle) mixture supplemented with 10% (v/v) fetal bovine serum (Invitrogen) at 37° C. with 5% CO2. The PC-3 and DU-145 tumor models were generated by subcutaneous injection of 5×10^6 tumor cells into the front flank of male athymic nude mice (Harlan).
No attenuation or scatter correction was applied.

[5] = Small-animal PET of MDA-MB-435 tumor-bearing mice; details: female, athymic nude, mouse, in vivo, iv, total radioactivity; 30 min p.i., BBN tracer control study, FIG. 44B; read-out: MDA-MB-435 tumor uptake
[6] = Octanol/water partition coefficient; format: physicochemical; details: octanol / PBS pH 7.4, room temperature
Description: The mixture was vigorously vortexed for 1 min at room temperature. After centrifugation at 12,500 rpm for 5 min in an Eppendorf microcentrifuge (model 5415R; Brinkman), 200-μL aliquots of both layers were measured using a 7-counter (Packard Instruments). The experiment was performed in triplicate.

| SMILES | binding inhibition of ^125I-c(RGDyK) [1] | cell uptake [2] | tissue uptake at 0.5 h ([3]; 30 min after injection of 3.7 MBq) [%ID/g] | tissue uptake at 1 h ([3]; 60 min after injection of 3.7 MBq, no blocking) [%ID/g] | tissue uptake at 2 h ([3]; 120 min after injection of 3.7 MBq) [%ID/g] | detection of the DU-145 tumor by PET [4] | tissue uptake at 0.5 h [5] [%ID/g] | logP [6] |
| --- | --- | --- | --- | --- | --- | --- | --- | --- |
| CSCC[C@H](NC(=O)[C@H](CC(C)C)NC(=O)[C@H](Cc1c[nH]cn1)NC(=O)CNC(=O)[C@@H](NC(=O)[C@H](C)NC(=O)[C@H](Cc1c[nH]c2ccccc12)NC(=O)[C@H](CCC(N)=O)NC(=O)CCCCCN)C(C)C)C(N)=O [Aca-BBN(7-14)] | did not show significant binding inhibition | – | – | – | – | – | – | – |
| CSCC[C@H](NC(=O)[C@H](CC(C)C)NC(=O)[C@H](Cc1c[nH]cn1)NC(=O)CNC(=O)[C@@H](NC(=O)[C@H](C)NC(=O)[C@H](Cc1c[nH]c2ccccc12)NC(=O)[C@H](CCC(N)=O)NC(=O)CCCCCNC(=O)c1ccc(F)cc1)C(C)C)C(N)=O [^18F-FB-BBN, reference compound] | – | about 7% | 0.63 ± 0.16 | 0.44 ± 0.1 | 0.29 ± 0.08 | unable to detect the DU-145 tumor | 0.45 ± 0.11 | 1.49 ± 0.02 |

Source: patent US20100015058A1, “RADIOLABELED BBN-RGD HETERODIMERS FOR CANCER TARGETING” (STANFORD UNIVERSITY, priority 2008, published 2010)
